In publication PMC7724566, “Prospects for Clinical Development of Stat5 Inhibitor IST5-002: High Transcriptomic Specificity in Prostate Cancer and Low Toxicity In Vivo” (Cancers, 2020):

Experiments:
Assay in all cases: Radiometric filtration binding cell-free kinase assay
Format in all cases: biochemical
Set-up in all cases: purchased Reaction Biology (JAK1/2/3, TYK2); Luceome Biotechnologies KinaseSeeker (others)
Conditions in all cases: percent activity of kinase after exposure to IST5 1 µM
[1] = molecular target: JAK1 (Homo sapiens, UniProt P23458)
Sequence of JAK1 (P23458 whole entry, the tested form may be a part): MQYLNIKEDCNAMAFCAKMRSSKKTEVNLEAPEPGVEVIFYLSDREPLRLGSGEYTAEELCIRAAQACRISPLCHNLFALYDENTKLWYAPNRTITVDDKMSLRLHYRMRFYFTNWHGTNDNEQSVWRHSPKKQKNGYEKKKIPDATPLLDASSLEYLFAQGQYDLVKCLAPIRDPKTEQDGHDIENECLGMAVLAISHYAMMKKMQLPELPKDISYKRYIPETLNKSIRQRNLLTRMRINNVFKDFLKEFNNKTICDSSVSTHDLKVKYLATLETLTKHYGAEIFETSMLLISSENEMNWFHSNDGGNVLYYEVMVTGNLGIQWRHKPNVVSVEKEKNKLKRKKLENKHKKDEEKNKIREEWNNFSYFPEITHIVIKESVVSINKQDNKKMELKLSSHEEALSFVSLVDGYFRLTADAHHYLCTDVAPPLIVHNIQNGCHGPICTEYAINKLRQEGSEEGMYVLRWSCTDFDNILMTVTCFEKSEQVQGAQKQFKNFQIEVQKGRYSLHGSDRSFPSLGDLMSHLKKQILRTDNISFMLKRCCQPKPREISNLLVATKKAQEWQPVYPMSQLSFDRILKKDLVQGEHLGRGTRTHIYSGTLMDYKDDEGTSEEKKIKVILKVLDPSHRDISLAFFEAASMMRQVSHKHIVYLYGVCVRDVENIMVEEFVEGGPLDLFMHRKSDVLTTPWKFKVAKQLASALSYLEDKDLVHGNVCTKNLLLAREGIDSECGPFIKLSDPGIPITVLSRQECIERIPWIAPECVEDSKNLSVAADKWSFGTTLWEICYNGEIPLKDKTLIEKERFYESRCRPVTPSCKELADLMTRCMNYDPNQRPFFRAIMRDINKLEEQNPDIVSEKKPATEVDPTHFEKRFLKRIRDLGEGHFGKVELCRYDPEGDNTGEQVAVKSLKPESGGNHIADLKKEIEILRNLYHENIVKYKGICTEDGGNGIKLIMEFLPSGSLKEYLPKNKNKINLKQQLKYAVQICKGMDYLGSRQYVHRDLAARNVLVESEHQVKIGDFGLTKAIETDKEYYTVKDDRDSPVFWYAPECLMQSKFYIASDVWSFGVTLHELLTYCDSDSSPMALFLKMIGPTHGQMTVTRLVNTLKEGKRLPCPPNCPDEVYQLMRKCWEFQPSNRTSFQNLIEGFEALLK
Experimental: (§1) For Jak1, Jak2, Jak3 and Tyk2, a radiometric filtration binding assay was conducted by Reaction Biologicals (Malvern, PA, USA) (Table 1). This radiometric assay is a cell-free assay which is based on conventional filter-binding assays, directly measuring kinase catalytic activity toward a specific substrate. For evaluation of the activity of the other kinases, the Kinase Seeker Technology was utilized (Luceome Biotechnologies, Tucson, AZ, USA), which is a luminescence-based cell-free assay. In this assay, the reassembly of luciferase fragments is mediated by the interaction of a kinase with an active site-dependent probe. The competitive displacement of the probe by an inhibitor is measured by a change in luminescence signal. Percent activity of each kinase after exposure to IST5 (1 µM) is presented.

[2] = molecular target: T1, JAK3 (Homo sapiens, UniProt P52333)
T1 sequence (P52333 1-1124): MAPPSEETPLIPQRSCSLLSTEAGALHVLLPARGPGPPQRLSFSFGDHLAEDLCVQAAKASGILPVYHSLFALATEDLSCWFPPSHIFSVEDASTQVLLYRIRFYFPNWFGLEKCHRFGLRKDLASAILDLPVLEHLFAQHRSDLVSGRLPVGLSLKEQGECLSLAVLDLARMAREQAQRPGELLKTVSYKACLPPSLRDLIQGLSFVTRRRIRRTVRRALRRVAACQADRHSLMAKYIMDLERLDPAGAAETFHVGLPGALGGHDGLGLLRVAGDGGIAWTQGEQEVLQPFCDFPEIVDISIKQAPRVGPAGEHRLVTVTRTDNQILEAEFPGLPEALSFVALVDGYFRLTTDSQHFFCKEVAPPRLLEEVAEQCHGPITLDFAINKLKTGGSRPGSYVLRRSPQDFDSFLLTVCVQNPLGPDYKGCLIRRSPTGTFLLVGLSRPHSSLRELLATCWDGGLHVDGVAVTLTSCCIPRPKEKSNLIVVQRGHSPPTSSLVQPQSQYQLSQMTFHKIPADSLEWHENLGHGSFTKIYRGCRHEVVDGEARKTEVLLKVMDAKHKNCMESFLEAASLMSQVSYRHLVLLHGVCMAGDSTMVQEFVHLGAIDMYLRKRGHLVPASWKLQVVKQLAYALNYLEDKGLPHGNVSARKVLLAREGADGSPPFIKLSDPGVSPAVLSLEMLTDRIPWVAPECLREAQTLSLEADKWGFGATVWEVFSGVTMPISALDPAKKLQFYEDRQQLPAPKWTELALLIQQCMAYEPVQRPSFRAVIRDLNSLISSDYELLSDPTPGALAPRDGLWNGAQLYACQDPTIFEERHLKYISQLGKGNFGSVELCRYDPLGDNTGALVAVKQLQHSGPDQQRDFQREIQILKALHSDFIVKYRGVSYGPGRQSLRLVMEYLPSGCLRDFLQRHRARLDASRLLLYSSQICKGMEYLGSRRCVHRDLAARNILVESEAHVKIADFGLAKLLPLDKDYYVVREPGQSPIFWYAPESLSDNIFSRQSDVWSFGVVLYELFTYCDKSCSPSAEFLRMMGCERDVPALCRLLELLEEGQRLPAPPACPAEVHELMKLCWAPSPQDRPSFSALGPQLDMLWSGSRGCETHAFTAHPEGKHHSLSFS
Experimental: as §1

[3] = molecular target: TYK2 (Homo sapiens, UniProt P29597)
Sequence of TYK2 (P29597 whole entry): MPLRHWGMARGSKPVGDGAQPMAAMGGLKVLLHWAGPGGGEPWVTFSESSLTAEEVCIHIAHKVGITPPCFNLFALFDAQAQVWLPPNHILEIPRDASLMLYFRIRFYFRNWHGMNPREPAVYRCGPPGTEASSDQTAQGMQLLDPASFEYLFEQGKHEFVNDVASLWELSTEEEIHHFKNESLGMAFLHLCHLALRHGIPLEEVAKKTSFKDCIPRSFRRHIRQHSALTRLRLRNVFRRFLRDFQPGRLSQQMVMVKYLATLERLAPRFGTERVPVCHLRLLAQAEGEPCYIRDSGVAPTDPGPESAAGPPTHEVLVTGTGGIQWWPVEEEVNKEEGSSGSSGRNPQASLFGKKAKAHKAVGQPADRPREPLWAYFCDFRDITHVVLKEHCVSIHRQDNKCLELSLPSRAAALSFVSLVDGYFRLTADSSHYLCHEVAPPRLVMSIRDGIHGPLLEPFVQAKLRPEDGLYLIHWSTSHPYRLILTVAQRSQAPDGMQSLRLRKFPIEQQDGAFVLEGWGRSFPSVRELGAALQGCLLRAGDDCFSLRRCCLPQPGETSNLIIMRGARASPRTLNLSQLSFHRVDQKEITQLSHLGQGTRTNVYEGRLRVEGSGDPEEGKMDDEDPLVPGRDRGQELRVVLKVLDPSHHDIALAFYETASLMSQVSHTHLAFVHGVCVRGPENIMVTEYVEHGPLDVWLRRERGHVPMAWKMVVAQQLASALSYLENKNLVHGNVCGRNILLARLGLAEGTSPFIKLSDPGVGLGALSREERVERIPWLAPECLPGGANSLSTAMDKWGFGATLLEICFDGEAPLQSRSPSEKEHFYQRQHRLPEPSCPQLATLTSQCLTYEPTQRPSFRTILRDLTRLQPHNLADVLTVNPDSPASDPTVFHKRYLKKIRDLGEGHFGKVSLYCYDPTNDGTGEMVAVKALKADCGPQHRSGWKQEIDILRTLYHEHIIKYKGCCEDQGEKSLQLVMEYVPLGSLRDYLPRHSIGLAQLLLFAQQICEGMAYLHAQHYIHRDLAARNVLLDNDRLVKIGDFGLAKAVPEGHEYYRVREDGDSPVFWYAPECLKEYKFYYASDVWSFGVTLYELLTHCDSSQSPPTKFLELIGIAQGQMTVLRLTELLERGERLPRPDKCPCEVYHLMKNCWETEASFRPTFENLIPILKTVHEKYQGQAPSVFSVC
Experimental: as §1

O=P(O)(O)OCC1OC(n2cnc3c(NCc4ccccc4)ncnc32)C(O)C1O (stereo not drawn) [IST5]
Activity [1]: 96.2%
Activity [2]: 100.0%
Activity [3]: 100.0%
